Test: In vitro dissolution test, microcentrifuge method, in phosphate buffered saline (PBS) pH 6.5
Type: physicochemical
Procedure: The compositions comprising the CETP inhibitor and concentration-enhancing polymer provide enhanced concentration of the dissolved CETP inhibitor in in vitro dissolution tests. […] An appropriate PBS solution is an aqueous solution comprising 20 mM sodium phosphate (Na2HPO4), 47 mM potassium phosphate (KH2PO4), 87 mM NaCl, and 0.2 mM KCl, adjusted to pH 6.5 with NaOH. An appropriate MFD solution is the same PBS solution wherein additionally is present 7.3 mM sodium taurocholic acid and 1.4 mM of 1-palmitoyl-2-oleyl-sn-glycero-3-phosphocholine. In particular, a composition of the present invention can be dissolution-tested by adding it to MFD or PBS solution and agitating to promote dissolution.
Indeed, for some extremely insoluble CETP inhibitors, in order to identify the MDC achieved it may be necessary to use an amount of test composition such that if all of the CETP inhibitor dissolved, the CETP inhibitor concentration would be 10,000-fold or even more, that of the equilibrium concentration of the CETP inhibitor.
The MDC is taken to be the maximum value of dissolved CETP inhibitor measured over the duration of the test.
Filtration can be conducted using a 13 mm, 0.45 μm polyvinylidine difluoride syringe filter sold by Scientific Resources under the trademark TITAN®. Centrifugation is typically carried out in a polypropylene microcentrifuge tube by centrifuging at 13,000 G for 60 seconds. Other similar filtration or centrifugation methods can be employed and useful results obtained.
The spray-dried dispersions of Examples 6 and 7 were evaluated in an in vitro dissolution test using a microcentrifuge method. In this test, the spray-dried dispersion was added to a microcentrifuge tube for a Drug 2 dose of about 1000 μg/mL (7.2 mg for Example 6, 18 mg for Example 7). The tube was placed in a 37° C. sonicating bath, and 1.8 mL phosphate buffered saline (PBS) at pH 6.5 and 290 mOsm/kg was added. The samples were quickly mixed using a vortex mixer for about 60 seconds. The samples were centrifuged at 13,000 G at 37° C. for 1 minute. The resulting supernatant solution was then sampled and diluted 1:6 (by volume) with methanol and then analyzed by high-performance liquid chromatography (HPLC). The contents of the tubes were mixed on the vortex mixer and allowed to stand undisturbed at 37° C. until the next sample was taken. Samples were collected at 4, 10, 20, 40, 90, and 1200 minutes.
For Control 2, an in vitro dissolution test was performed using the procedures described above except that 1.8 mg of crystalline Drug 2 was used.
In this method, 7.2 mg of each spray-dried dispersion was added to a 2-mL microcentrifuge tube. The tube was placed in a 37° C. sonicating bath, and 1.8 mL of a phosphate-buffered saline (PBS) solution at pH 6.5 and 290 mOsm/kg was added, resulting in a TCmax of 400 μg/mL. The samples were quickly mixed using a combination of vortex mixer and sonication for about 90 seconds. The samples were centrifuged at 13,000 G at 37° C. for 1 minute. The resulting supernatant solution was then sampled and diluted 1:6 (by volume) with methanol and then analyzed by HPLC. The tubes were then mixed on the vortex mixer and allowed to stand undisturbed at 37° C. until the next sample. Samples were collected at 4, 10, 20, 40, 90 and 1200 minutes.
For Control 5, an in vitro dissolution test was performed using the procedure described above, except that 0.72 mg of non-crystalline Drug 3 was placed in a microcentrifuge tube and mixed with 1.8 mL of PBS.
In this method, 15 mg of each SDD was added to a 2-mL microcentrifuge tube. The tube was placed in a 37° C. sonicating bath, and 1.5 mL of a phosphate-buffered saline (PBS) solution at pH 6.5 and 290 mOsm/kg) was added, resulting in a TCmax of 1000 μg/mL. The samples were quickly mixed using a combination of vortex mixer and sonication for about 90 seconds.

[1] = Table 13, Drug 3, PBS, TCmax 400 μg/mL
[2] = PBS pH 6.5, 37° C., TCmax 1000 μg/mL, time 4 min
[3] = PBS pH 6.5, 37° C., TCmax 1000 μg/mL, time 10 min
[4] = PBS pH 6.5, 37° C., TCmax 1000 μg/mL, time 20 min
[5] = PBS pH 6.5, 37° C., TCmax 1000 μg/mL, time 40 min
[6] = PBS pH 6.5, 37° C., TCmax 1000 μg/mL, time 90 min
[7] = Table 16, Drugs 4-9, PBS pH 6.5, 37° C., TCmax 1000 μg/mL
[8] = PBS pH 6.5, 37° C., TCmax 1000 μg/mL, time 0 min

AUC [2] [min-μg/mL]	Concentration [2] [ng/mL]	AUC [3] [min-μg/mL]	Concentration [3] [ng/mL]	AUC [4] [min-μg/mL]	Concentration [4] [ng/mL]	AUC [5] [min-μg/mL]	Concentration [5] [ng/mL]	AUC [6] [min-μg/mL]	Concentration [6] [ng/mL]	AUC90 [7] [min-μg/mL]	Cmax, 90 [7] [ng/mL]	SMILES	also measured
												CCCOC(=O)N1c2ccc(C(F)(F)F)cc2[C@@H](N(Cc2cc(C(F)(F)F)cc(C(F)(F)F)c2)C(=O)OC)C[C@H]1CC [Control 5, [2R,4S]4-[(3,5-bis-trifluoromethyl-benzyl)-methoxycarbonyl-amino]-2-ethyl-6-trifluoromethyl-3,4-dihydro-2H-quinoline-1-carboxylic acid propyl ester]	Concentration (Table 12, Drug 3, PBS pH 6.5, 37° C., 0 min, TCmax 400 μg/mL): 0 ng/mL; Concentration (Table 12, Drug 3, PBS pH 6.5, 37° C., 4 min, TCmax 400 μg/mL): <100 ng/mL; Concentration (Table 12, Drug 3, PBS pH 6.5, 37° C., 10 min, TCmax 400 μg/mL): <100 ng/mL; Concentration (Table 12, Drug 3, PBS pH 6.5, 37° C., 20 min, TCmax 400 μg/mL): <100 ng/mL; Concentration (Table 12, Drug 3, PBS pH 6.5, 37° C., 40 min, TCmax 400 μg/mL): <100 ng/mL; Concentration (Table 12, Drug 3, PBS pH 6.5, 37° C., 90 min, TCmax 400 μg/mL): <100 ng/mL; AUC (Table 12, Drug 3, PBS pH 6.5, 37° C., to 0 min, TCmax 400 μg/mL): 0 min-μg/mL; AUC (Table 12, Drug 3, PBS pH 6.5, 37° C., to 4 min, TCmax 400 μg/mL): <0.4 min-μg/mL; AUC (Table 12, Drug 3, PBS pH 6.5, 37° C., to 10 min, TCmax 400 μg/mL): <1.0 min-μg/mL; AUC (Table 12, Drug 3, PBS pH 6.5, 37° C., to 20 min, TCmax 400 μg/mL): <2.0 min-μg/mL; AUC (Table 12, Drug 3, PBS pH 6.5, 37° C., to 40 min, TCmax 400 μg/mL): <4.0 min-μg/mL; AUC (Table 12, Drug 3, PBS pH 6.5, 37° C., to 90 min, TCmax 400 μg/mL): <9.0 min-μg/mL; AUC90 [1]: <9.0 min-μg/mL; Cmax, 90 [1]: <100 ng/mL
<4	<1000	<10	<1000	<20	<1000	<40	<1000	<90	<1000	<90	<1000	CCOC(=O)N1c2cc3c(cc2[C@@H](N(Cc2cc(C(F)(F)F)cc(C(F)(F)F)c2)C(=O)OC)C[C@H]1C)CCC3 [Control 8, [2R,4S]4-[(3,5-bis-trifluoromethyl-benzyl)-methoxycarbonyl-amino]-2-methyl-2,3,4,6,7,8-hexahydro-cyclopenta[g]quinoline-1-carboxylic acid ethyl ester]	
<4	<1000	<10	<1000	<20	<1000	<40	<1000	<90	<1000	<90	<1000	CC1(C)Cc2nc(C3CCCC3)c([C@@H](F)c3ccc(C(F)(F)F)cc3)c(-c3ccc(F)cc3)c2[C@@H](O)C1 [Control 11, [3S,5S]2-cyclopentyl-4-(4-fluoro-phenyl)-3-[fluoro-(4-trifluoromethyl-phenyl)-methyl]-7,7-dimethyl-5,6,7,8-tetrahydro-quinolin-5-ol]	AUC [8]: 0 min-μg/mL; Concentration [8]: 0 ng/mL

From US8389011B2, “Pharmaceutical compositions of cholesteryl ester transfer protein inhibitors” (Bend Research, Inc., priority 2000, dated 2013)
